Measured values: patent US4874780A, “Anticancer compounds” (Norsk Hydro a.s., priority 1987, dated 1989)
Entries after “also recorded” stand apart in the source; their conditions may differ. Structures can show the parent of a compound that is named as a salt. Where two headings read alike, the source gives them in different places.

Assays:
[1] = tested on: NHIK 3025 cells; assay: Cell survival (colony formation) after 24 hr treatment; assay type: cell-based; settings: Homo sapiens, NHIK3025, 24 h
Source text: (§1) Human cells of the established line NHIK 3025, originating from a cervical carcinoma in situ (Nordbye, K., and Oftebro, R. Exp. Cell Res., 58: 458, 1969), Oftebro, R., and Nordbye, K., Exp. Cell Res., 58: 459-460, 1969) were cultivated in Medium E2a (Puck, T.T. et al., J. Exp. Med., 106:145-165, 1957) supplemented with 20% human (prepared at the laboratory) and 10% horse serum (Grand Island Biological Co.). The cells are routinely grown as monolayers in tissue culture flasks.
(§2) The cells were kept in continuous exponential growth by frequent reculturing, i.e., every second and third day, and synchronized cell populations with a high degree of synchrony were obtained by repeated selection of mitotic cells (Pettersen, E. O. et al, Cell Tissue Kinet., 10: 511-522, 1977). During the synchronization procedure, the cells were kept in Medium E2a, and the whole experiment took place in a walk-in incubator at 37° C. Under growth conditions as used here, the NHIK 3025 cells have a medium cell-cycle time of ~18 hr, with medium G1, S1 and G2 durations of ~7, ~8, and ~2.5 hr, respectively.
For measurement of cell survival, appropriate numbers of cells were seeded in plastic Petri dishes (.phi.=5 cm). The number of cells seeded into each dish was adjusted such that the number of surviving cells would be approximately 150 per dish. While exponentially growing (asynchronous) cells were trypsinized before seeding, synchronized cells were seeded immediately after selection. After about 2 hr, the cells had attached to the bottom of the dishes, and the treatment was started by replacing the medium with medium containing the appropriate drug concentration. After the desired time of treatment, the drug-containing medium was removed, and fresh medium was added. The dishes were rinsed once with the same medium as was to be added on addition or removal of drug. After 10 to 12 days at 37° C. in a CO2 incubator, the cells were fixed in ethanol and stained with methylene blue before the colonies were counted.
The cytotoxic effect of benzaldehyde and of deuterobenzaldehyde-d1 was tested on asynchronous, exponentially growing NHIK 3025 cells by counting the number of cells able to form colonies after 24 hr treatment in Petri dishes. In Table 1 the results represent 2 different, independent experiments where the numbers give the mean fraction of surviving cells from 10 parallel dishes (± standard error).
Fraction of cells surviving 24 hr treatment with benzaldehyde or deuterobenzaldehyde - d1 in Petri dishes. (The values represent the mean±standard error from 10 different dishes.)

[2] = Concentration of BG or BG-d1 in blood samples after iv injection (HPLC); assay type: in vivo, male Wistar rats; settings: rat, iv
Experimental: Measurement of concentration of 4,6-O-benzylidene-D-glucose (BG) or 4,6-O-deuterobenzylidene-d1 -D-glucose (BG-d1) in blood samples (Table 5).
(§3) Blood samples were taken from male Wistar rats immediately before and at several intervals after intravenous injection of BG or BG-d1. Blood serum was separated by centrifugation. Equal amounts of blood serum and HPLC-grade acetonitrile were mixed and centrifuged at 13,000 rpm (15,000×g) for 5 minutes. Samples were then analyzed for BG or BG-d1 content by High Performance Liquid Chromatography (HPLC). Samples were placed in an autosampler programmed for replicate injections of […] each onto a 4.6×250 mm LC18 HPLC column. The column was eluted with 45% aqueous methanol delivered at 1 ml/min. BG or BG-d1 were detected by using a spectrofluorometer set at excitation and emission wavelengths of 255 and 283 nm, respectively. The slit width used was 10 nm. Quantitation of the amount of BG or BG-d1 in serum samples was performed with an electronic integrator calibrated with standard solutions of BG or BG-d1 in the mobile phase (Pettersen et al., Anticancer Res., 6; 147-152, 1986).
We have compared the metabolism in rats of BG as well as of deuterated BG (BG-d1). In Table 5 the serum concentration of BG or BG-d1 is shown at various time points after a single iv injection of each drug, respectively.

[3] = tested on: NHIK 3025 cells; assay: Protein synthesis rate ((3H)valine incorporation); assay type: cell-based, human; settings: 3.2 mM
Source text: as §1, §2
The rate of protein synthesis was calculated as described previously (Ronning, O. W. et al., J. Cell Physiol., 107: 47-57, 1981). Briefly, cellular protein was labeled to saturation during a 2-day preincubation with (^14 C)valine of constant specific radioactivity (0.5 Ci/mol) prior to the experiment. This was achieved by using a high concentration of valine so that the dilution of (^14 C)valine by intracellular valine and by proteolytically generated valine will be negligible (Ronning, O. W., et al. Exp. Cell Res. 123: 63-72, 1979), thus keeping the specific radioactivity at a constant level. The rate of protein synthesis was calculated from the incorporation of (3H)valine of constant specific activity. The incorporation measurements were related to the total of (^14 C) radioactivity in protein at the beginning of the respective measurement periods and expressed as the percentage per hr (Ronning, O. W. et al, J. Cell, Physiol. 107: 47-57, 1981).
[…] The last measurements were done to test the reversibility of the drugs. Drug concentration: 3.2 mM.

[4] = BG or BG-d1 metabolites in blood samples after iv injection (HPLC peak height); assay type: in vivo, male Wistar rats; settings: rat, iv, BG versus BG-d1
Experimental: as §3
Measurement of BG or BG-d1 metabolites in blood samples (Table 6)
HPLC of blood samples was performed as indicated above. Relative amounts of BG- or BG-d1 -metabolite were determined by peak height analysis. The peak height from the electronic integrator (in microvolts) of samples taken 30 minutes after iv injection of BG, or 60 minutes after iv injection of BG-d1 were normalized to 1. All other metabolite peaks were compared with these values.
At the same time as BG or BG-d1 metabolism was being determined, a separate metabolite peak appeared in HPLC chromatograms. The increase in BG- and BG-d1 -metabolite and subsequent clearance was measured.

[5] = tested on: NHIK 3025 cells; assay: Duration of cell cycle-time of synchronized cells; assay type: cell-based, human; settings: 8 hr treatment
Source text: as §1, §2
(§4) For detection of the drug effects on cell-cycle kinetics, the same methods were used as described previously (Lindmo, T., and Pettersen, E. O., Cell Tissue Kinet., 12: 43-57, 1979), (Pettersen, E. O. et al, Eur. J. Cancer Clin. Oncol., 19: 507-514; 1983), (Ronning, O.W. et al., J. Cell. Physiol., 109: 411-419, 1981). Briefly, the selected mitotic cells were seeded into 8 tissue culture flasks (25 sq cm) 5000 cells per flask. The cells divided within 1 hr and attached as doublets to the bottom of the flasks. […] Analyses of durations of mitosis were performed from these observations (Table 4).
This is shown by the data in Table 3, where we have used synchronized cells treated over an 8 hr period starting 2 hr after mitotic selection, i.e. when the cells were in early Gl.

[6] = tested on: NHIK 3025 cells; assay: Duration of mitosis of synchronized cells; assay type: cell-based, human; settings: 3.2 mM during mitosis
Source text: as §1, §2, §4
This effect is probably directly related to the aldehyde group (Pettersen et al. Cancer Res. 45: 2085-2091, 1985). If the deuterated aldehyde group induces different biological effects from the undeuterated one it is therefore good reason to expect this to be expressed as a difference in effect on cells in mitosis. In Table 4 results are shown on prolongation of mitosis of synchronized cells treated with benzaldehyde or deuterobenzaldehyde-d1 during mitosis. The numbers in the table represent the percentage of the cells having a duration of mitosis below 1 hr (which is normal for untreated cells) or above the number of hours indicated on top of each column.

[7] = Solubility in water, pH of solution and stability of benzylidene ascorbic acid compounds; assay type: physicochemical; settings: for Stability (in words): free acid compared with mono-basic salt
Source text: The structural formula is shown below. The structure has been confirmed by IR and NMR. […] The pH of the solution is 6.6. [drawing 8] The beneficial properties of the drug composition according to the present invention are illustrated below in connection with a series of experiments which have been performed.

[8] = read-out: Cell survival of cells treated for 24 hr
[9] = read-out: Fraction of cells surviving 24 hr treatment

## [2H]C1(c2ccccc2)OC[C@H]2OC(O)[C@H](O)[C@@H](O)[C@@H]2O1 (stereo partly drawn) [BG-d1, 4,6-O-deuterobenzylidene-d1 -D-glucose]
[1]; [8]
  viability at 6400 µM: 33 ± 7%
  viability at 12800 µM: 0.8 ± 0.3%
[2]; compared with BG
  Metabolism and clearance from serum (in words): slower than that of the undeuterated compound; also recorded: clearly slower metabolism and clearance from serum
[2]; serum, 0 minutes (estimated), read-out: Amount of unmetabolized drug in blood samples
  concentration at 0 h: 345 µM
[2]; serum, 2 minutes, read-out: Amount of unmetabolized drug in blood samples
  concentration at 2 min: 220 ± 20 µM
[2]; serum, 5 minutes, read-out: Amount of unmetabolized drug in blood samples
  concentration at 5 min: 160 ± 20 µM
[2]; serum, 10 minutes, read-out: Amount of unmetabolized drug in blood samples
  concentration at 10 min: 140 ± 20 µM
[2]; serum, 15 minutes, read-out: Amount of unmetabolized drug in blood samples
  concentration at 0.25 h: 100 ± 20 µM
[2]; serum, 20 minutes, read-out: Amount of unmetabolized drug in blood samples
  concentration at 20 min: 97 ± 3 µM
[2]; serum, 30 minutes, read-out: Amount of unmetabolized drug in blood samples
  concentration at 0.5 h: 66 ± 15 µM
[2]; serum, 60 minutes, N.F. = Not Found, read-out: Amount of unmetabolized drug in blood samples
  concentration at 1 h: 10 ± 5 µM
[2]; serum, read-out: half-life in vivo
  half-life: ~15 min
[3]; asynchronous cells, 3 hr treatment, pulse 0-1 hr, during treatment, Table 8, control 5.7 ± 0.5
  Protein synthesis: 3.0 ± 0.3 %/hr
[3]; asynchronous cells, 3 hr treatment, pulse 2-3 hr, during treatment, Table 8, control 5.7 ± 0.5
  Protein synthesis: 3.4 ± 0.3 %/hr
[3]; synchronized cells, 22 hr treatment, pulse 21-22 hr, during treatment, Table 8, control 5.3 ± 0.2
  Protein synthesis: 4.6 ± 0.2 %/hr
[3]; synchronized cells, 22 hr treatment, pulse 23-24 hr, after treatment, Table 8, control 5.3 ± 0.2
  Protein synthesis: 5.4 ± 0.1 %/hr
[4]
  Clearance (or further metabolization) of metabolite (in words): slower clearance kinetics than that formed from BG

## [2H]C(=O)c1ccccc1 [Deuterobenzaldehyde-d1]
[1]; [9]
  viability at 3200 µM: 68 ± 14%
  viability at 12800 µM: 0.56 ± 0.2%
[5]; 2 mM, versus control 1
  Prolongation: 15.2%
[5]; 2 mM, control 1 16.5
  Duration of the part of the cell cycle starting 2 hr after selection: 19.0
[5]; 2.5 mM, versus control 2
  Prolongation: 108.3%
[5]; 2.5 mM, control 2 16.8
  Duration of the part of the cell cycle starting 2 hr after selection: 35.0
[3]; 4 hr treatment, pulse 0-1, during treatment, Table 2, control 6.8 ± 0.9
  Protein synthesis: 3.6 ± 0.3 %/hr
[3]; 4 hr treatment, pulse 4-5, after treatment, Table 2, control 6.8 ± 0.9
  Protein synthesis: 4.7 ± 0.3 %/hr
[3]; 4 hr treatment, pulse 5-6, after treatment, Table 2, control 6.8 ± 0.9
  Protein synthesis: 5.8 ± 0.3 %/hr
[6]
  Percentage of cells with duration of mitosis >4 h: 70%
  Percentage of cells with duration of mitosis >5 h: 69%
  Percentage of cells with duration of mitosis >6 h: 64%
[6]; control 2%
  Percentage of cells with duration of mitosis >3 h: 74%
[6]; control 4%
  Percentage of cells with duration of mitosis >2 h: 81%
[6]; control 17%
  Percentage of cells with duration of mitosis >1 h: 87%
[6]; control 83%
  Percentage of cells with duration of mitosis <1 h: 13%

## [2H]C1(c2ccccc2)OC[C@@H]([C@H]2OC(=O)C(O)=C2O)O1 (stereo partly drawn) [mono-sodium salt of deutero 5,6-O-benzylidene-L-ascorbic aci] [mono-sodium salt of deutero 5,6-O-benzylidene-L-ascorbic acid]
[7]; aqueous solution of mono-sodium salt
  pH of the solution: 6.6
[7]
  Stability (in words): much more stable
[7]; water
  Solubility in water: readily soluble in water

## [2H]C1(c2ccccc2)OC[C@@H]([C@H]2OC(=O)C(O)=C2O)O1 (stereo partly drawn) [deutero 5,6-O-benzylidene ascorbic acid, deutero 5,6-O-benzylidene-L-ascorbic acid]
[7]
  Stability (in words): instability
